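48-hour exposure; five concentrations; linearly interpolated endpoints. The concentration for 50% growth inhibition is given as GI50. TGI: total growth inhibition.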
Experiments:
Test in all cases: NCI anticancer screen, dose series, 48 h
HL-60(TB) leukemia = test system: HL-60(TB) leukemia
SR leukemia = test system: SR leukemia
MALME-3M melanoma = test system: MALME-3M melanoma
ACHN renal = test system: ACHN renal
KM12 colon = test system: KM12 colon
COLO 205 colon = test system: COLO 205 colon
NCI-H460 lung = test system: NCI-H460 lung
A549 NSCLC = test system: A549 NSCLC
HCC-2998 colon = test system: HCC-2998 colon
M14 melanoma = test system: M14 melanoma

Compound	GI50 (HL-60(TB) leukemia)	TGI (HL-60(TB) leukemia)	GI50 (SR leukemia)	TGI (SR leukemia)	GI50 (MALME-3M melanoma)	TGI (MALME-3M melanoma)	GI50 (ACHN renal)	TGI (ACHN renal)	GI50 (KM12 colon)	TGI (KM12 colon)	GI50 (COLO 205 colon)	TGI (COLO 205 colon)	GI50 (NCI-H460 lung)	TGI (NCI-H460 lung)	GI50 (A549 NSCLC)	TGI (A549 NSCLC)	GI50 (HCC-2998 colon)	TGI (HCC-2998 colon)	TGI (M14 melanoma)	GI50 (M14 melanoma)
COc1cc(/C=C2\C(=O)Nc3ccc(O)cc32)cc(OC)c1OC	6.11 µM	40.7 µM	1.75 µM	9.5 µM	17.9 µM	44.4 µM	15.9 µM	78.6 µM	17 µM	> 100 µM	20 µM	59.6 µM	8.69 µM	35.9 µM	21 µM	88 µM	7.46 µM	20.9 µM	–	–
CCOC(=O)/C(C#N)=c1/s/c(=C(\O)N/N=C/c2ccc(OC)cc2)c(=N)n1-c1ccccc1	–	> 100 µM	–	> 100 µM	–	–	–	> 100 µM	–	> 100 µM	–	> 100 µM	–	> 100 µM	–	> 100 µM	–	> 100 µM	–	–
CS(=O)(=O)Sc1ccc(Cl)cc1	–	17.5 µM	–	15.7 µM	–	26.6 µM	–	–	–	19.7 µM	–	12.7 µM	–	27.9 µM	–	17.5 µM	–	24 µM	25.8 µM	–
O[C@@H]1CCCCN1Cc1cc2cc3c(cc2c2cc(OCc4ccccc4)ccc12)OCO3	1.5 µM	3.57 µM	–	–	1.66 µM	3.37 µM	1.47 µM	2.79 µM	1.59 µM	3.16 µM	1.28 µM	2.66 µM	1.37 µM	2.76 µM	1.62 µM	3.31 µM	0.509 µM	1.83 µM	2.96 µM	1.59 µM
CCCCCCCCCCCCOC(=N)N1CCOCC1	–	3.26 µM	–	4.53 µM	–	34.5 µM	–	27.7 µM	–	19.3 µM	–	3.45 µM	–	30.2 µM	–	30.4 µM	–	23.8 µM	14.1 µM	–
Nc1ccc(Oc2ccc(C3(c4ccc(Oc5ccc(N)c(O)c5)cc4)C4CC5CC(C4)CC3C5)cc2)cc1O	–	5.3 µM	–	3.11 µM	–	3.92 µM	–	3.18 µM	–	4.59 µM	–	1.72 µM	–	–	–	3.14 µM	–	3.01 µM	3.18 µM	–
O=c1cc(O)c1=O	–	> 100 µM	–	> 100 µM	–	> 100 µM	–	> 100 µM	–	> 100 µM	–	> 100 µM	–	> 100 µM	–	> 100 µM	–	> 100 µM	> 100 µM	–
CC(C)OP(=O)(OC(C)C)C(=Nc1ccc(N=C(NNc2ccc([N+](=O)[O-])cc2)P(=O)(OC(C)C)OC(C)C)cc1)NNc1ccc([N+](=O)[O-])cc1	–	> 100 µM	–	> 100 µM	–	> 100 µM	–	> 100 µM	–	> 100 µM	–	> 100 µM	–	–	–	> 100 µM	–	–	> 100 µM	–
